{"source": "BigSolDB 2.1", "data": [{"smiles": "Cl.Nc1ccccc1", "values": [{"measurement": "solubility (mole fraction)", "setting": "in ethanol, 288.15 K", "result": 0.082}, {"measurement": "solubility (mole fraction)", "setting": "in ethanol, 298.15 K", "result": 0.098}, {"measurement": "solubility (mole fraction)", "setting": "in ethanol, 308.15 K", "result": 0.115}, {"measurement": "solubility (mole fraction)", "setting": "in ethanol, 318.15 K", "result": 0.134}, {"measurement": "solubility (mole fraction)", "setting": "in ethanol, 328.15 K", "result": 0.155}, {"measurement": "solubility (mole fraction)", "setting": "in methanol, 288.15 K", "result": 0.144}, {"measurement": "solubility (mole fraction)", "setting": "in methanol, 298.15 K", "result": 0.165}, {"measurement": "solubility (mole fraction)", "setting": "in methanol, 308.15 K", "result": 0.188}, {"measurement": "solubility (mole fraction)", "setting": "in methanol, 318.15 K", "result": 0.208}, {"measurement": "solubility (mole fraction)", "setting": "in methanol, 328.15 K", "result": 0.23}, {"measurement": "solubility (mole fraction)", "setting": "in n-propanol, 288.15 K", "result": 0.047}, {"measurement": "solubility (mole fraction)", "setting": "in n-propanol, 298.15 K", "result": 0.057}, {"measurement": "solubility (mole fraction)", "setting": "in n-propanol, 308.15 K", "result": 0.07}, {"measurement": "solubility (mole fraction)", "setting": "in n-propanol, 318.15 K", "result": 0.083}, {"measurement": "solubility (mole fraction)", "setting": "in n-propanol, 328.15 K", "result": 0.098}]}]}
